Literature values, collected in patent publication US20140295417A1, “IDENTIFICATION OF ANTIBIOTIC RESISTANCE” (priority 2011, published 2014).
Read-outs that look alike come from different tables or passages of the source.

System: 23S rRNA
Conditions: cited from earlier work
[1] = 23S rRNA position 2611, "C to G", Chlamydomonas reinhardtii (Harris et al. 1989)
[2] = 23S rRNA position 2611, "C to U", Chlamydomonas reinhardtii (Harris et al. 1989)

Structure (SMILES): C[C@H]1O[C@H](O[C@H]2CC[C@H](n3ccc(NC(=O)c4ccc(NC(=O)[C@@](C)(N)CO)cc4)nc3=O)O[C@@H]2C)[C@H](O)[C@@H](O)[C@@H]1N(C)C [Amicetin]
- Phenotype (23S rRNA position 2438 "U to A", Halobacterium halobium): Amicetin resistance
- Phenotype (23S rRNA position 2438 "U to C", Halobacterium halobium): Amicetin resistance.

Structure (SMILES): COc1ccc(C[C@H]2NC[C@H](O)[C@H]2OC(C)=O)cc1 [Animosycin]
- Phenotype (23S rRNA position 2452 "C to U", Halobacterium (Hummel and Böck 1987)): Animosycin resistance.
- Phenotype (23S rRNA position 2452 "C to U", Tetrahymena thermophilia): Animosycin resistance

Structure (SMILES): COc1ccc(C[C@H]2NC[C@H](O)[C@H]2OC(C)=O)cc1 [Anisomycin]
- Phenotype (23S rRNA position 2447 "G to C", Halobacterium halobium): resistance.
- Phenotype (23S rRNA position 2453 "A to C", Halobacterium halobium): Anisomycin resistance

Structure (SMILES): O=C(N[C@H](CO)[C@H](O)c1ccc([N+](=O)[O-])cc1)C(Cl)Cl [Chloramphenicol]
- Phenotype (23S position 2061 G to A, Rat mitochondria, Vester and Garrett 1988): resistance
- Phenotype (23S position 2062 A to C, Halobacterium halobium, Mankin and Garrett 1991): resistance.
- Phenotype (23S rRNA position 2447 "G to A", Yeast mitochondria): resistance.
- Phenotype (23S rRNA position 2451 "A to U", Mouse mitochondria): resistance.
- Phenotype (23S rRNA position 2452 "C to A", Human mitochondria): resistance.
- Phenotype (23S rRNA position 2452 "C to U", Halobacterium halobium (Mankin and Garrett 1991)): resistance.
- Phenotype (23S rRNA position 2452 "C to U", Mouse mitochondria): resistance
- Phenotype (23S rRNA position 2503 "A to C", Yeast mitochondria): resistance
- Phenotype (23S rRNA position 2504 "U to C", Human mitochondria): resistance
- Phenotype (23S rRNA position 2504 "U to C", Mouse mitochondria): resistance

Structure (SMILES): CC[C@H]1OC(=O)[C@H](C)[C@@H](O[C@H]2C[C@@](C)(OC)[C@@H](O)[C@H](C)O2)[C@H](C)[C@@H](O[C@@H]2O[C@H](C)C[C@H](N(C)C)[C@H]2O)[C@](C)(OC)C[C@@H](C)C(=O)[C@H](C)[C@@H](O)[C@]1(C)O [Clarithomycin]
- Phenotype (23S position 2059 A to G, Helecobacter pylori, Versalovic 1996): resistance.

Structure (SMILES): CC[C@H]1OC(=O)[C@H](C)[C@@H](O[C@H]2C[C@@](C)(OC)[C@@H](O)[C@H](C)O2)[C@H](C)[C@@H](O[C@@H]2O[C@H](C)C[C@H](N(C)C)[C@H]2O)[C@](C)(OC)C[C@@H](C)C(=O)[C@H](C)[C@@H](O)[C@]1(C)O [Clarithromycin]
- Phenotype (23S position 2058 A to G, Helecobacter pylori, Versalovic 1996): resistance

Structure (SMILES): CC[C@H]1OC(=O)[C@H](C)[C@@H](O[C@H]2C[C@@](C)(OC)[C@@H](O)[C@H](C)O2)[C@H](C)[C@@H](O[C@@H]2O[C@H](C)C[C@H](N(C)C)[C@H]2O)[C@](C)(O)C[C@@H](C)C(=O)[C@H](C)[C@@H](O)[C@]1(C)O [Ery]
- Phenotype (23S position 2058 A to U, double mutation (A2058U/G2032A), E. coli, Douthwaite 1992): hs
- Phenotype (23S rRNA 2032 G to A, double mutation (G2032A/A2058U), E. coli): hs
- Phenotype (23S rRNA 2057 G to A, double mutation (G2057A/C2661U), E. coli): Slightly Eryr;
- Phenotype [1]: Eryr
- Phenotype (23S rRNA position 2611, "C to U", double mutation (C2611U/G2057A), E. coli (Vester et al. 1995)): Slightly Eryr; reduced
- Phenotype [2]: Eryr

Structure (SMILES): CC[C@H]1OC(=O)[C@H](C)[C@@H](O[C@H]2C[C@@](C)(OC)[C@@H](O)[C@H](C)O2)[C@H](C)[C@@H](O[C@@H]2O[C@H](C)C[C@H](N(C)C)[C@H]2O)[C@](C)(O)C[C@@H](C)C(=O)[C@H](C)[C@@H](O)[C@]1(C)O [Erythromycin]
- Phenotype (23S position 2058 A to G, Yeast mitochondria, Sor and Fukuhara 1982): resistance.
- Phenotype (23S rRNA 1207 C to U, double mutant (C1207U/C1243U), E. coli): Erythromycin resistant. a Double
- Phenotype (23S rRNA 1208 C to U, double mutant (C1208U/C1243U), E. coli): Erythromycin resistant. a Double
- Phenotype (23S rRNA 1211 C to U, double mutant (C1211U/C1208U), E. coli): Erythromycin sensitive. a Double
- Phenotype (23S rRNA 1220 G to A, double mutant (G1220A/G1239A), E. coli): Erythromycin resistant. a Double
- Phenotype (23S rRNA 1221 C to U, double mutant (C1221U/C1229U), E. coli): Erythromycin resistant. a Double
- Phenotype (23S rRNA 1221 C to U, double mutant (C1221U/C1233U), E. coli): Erythromycin resistant. a Double
- Phenotype (23S rRNA 1230, double deletion (1230/1231), E. coli): Erythromycin sensitive. a Double
- Phenotype (23S rRNA 1231, double deletion (1231/1230), E. coli): Erythromycin sensitive. a Double
- Phenotype (23S rRNA 1232 G to A, double mutant (G1232A/G1238A), E. coli): Erythromycin sensitive. a Double
- Phenotype (23S rRNA 1233 C to U, E. coli): Erythromycin sensitive. a
- Phenotype (23S rRNA 1234 U to C, E. coli): Erythromycin sensitive. a
- Phenotype (23S rRNA 1234 del1234/del1235, double mutant (U1234C/del1235), E. coli): Erythromycin sensitive. a Double
- Phenotype (23S rRNA 1243 C to U, double mutant (C1243U/C1207), E. coli): Erythromycin resistant. a Double
- Phenotype (23S rRNA 1243 C to U, double mutant (C1243U/C1208U), E. coli): Erythromycin resistant. a Double
- Phenotype (23S rRNA 1243 C to U, double mutant (C1243U/C1221U), E. coli): Erythromycin resistant. a Double

Structure (SMILES): CCC[C@@H]1C[C@@H](C(=O)N[C@@H]([C@H]2O[C@H](SC)[C@H](O)[C@@H](O)[C@H]2O)[C@@H](C)O)N(C)C1 [Lincomycin]
- Phenotype (23S position 2058 A to G, Chlamydomonas reinhardtii, Harris 1989): resistance.
- Phenotype (23S position 2058 A to G, Solanum nigrum, Kavanagh 1994): resistance.
- Phenotype (23S position 2058 A to G, Tobacco chloroplasts, Cseplö 1988): resistance.
- Phenotype (23S position 2059 A to G, Tobacco chloroplasts, Cseplö 1988): resistance.
- Phenotype (23S rRNA 2032 G to A, Tobbaco chloroplasts): resistance.

Structure (SMILES): CSC[S@+]([O-])C[C@H](CO)NC(=O)/C=C/c1c(C)[nH]c(=O)[nH]c1=O [Sparsomycin]
- Phenotype (23S rRNA position 2499 "C to U", Halobacterium halobium): resistance

Structure (SMILES): CC[C@H]1OC(=O)[C@H](C)[C@@H](O[C@H]2C[C@@](C)(OC)[C@@H](O)[C@H](C)O2)[C@H](C)[C@@H](O[C@@H]2O[C@H](C)C[C@H](N(C)C)[C@H]2O)[C@](C)(O)C[C@@H](C)C(=O)[C@H](C)[C@@H](O)[C@]1(C)O [erythromycin]
- Phenotype: growth rate (23S rRNA 1056 G to A, E. coli, with 2058G and erythromycin): erythromycin) Reduced
- Phenotype: growth rate (23S rRNA 1064 C to U, E. coli, with 2058G and erythromycin): erythromycin) Reduced
- Phenotype (23S rRNA 1068 G to A, E. coli, with 2058G, expressed from rrnB or pL promotor in presence of erythromycin): 2058G) Lethal when
- Phenotype (23S rRNA 1137 G to A, double mutant (G1137A/G1138C), E. coli, with 2058G and erythromycin, rrnB promoter): lethal when expressed from rrnB
- Phenotype (23S rRNA 1137 G to A, E. coli, with 2058G and erythromycin, expressed from rrnB promoter): lethal when expressed from rrnB
- Phenotype (23S rRNA 1138 G to C, double mutant (G1138C/G1137A), E. coli, with 2058G and erythromycin, rrnB promoter): lethal when expressed from rrnB
- Phenotype (23S rRNA 1138 G to C, E. coli, with 2058G and erythromycin, rrnB promoter): lethal when expressed from rrnB
- Phenotype: growth rate (23S rRNA 1262 A to C, double mutant (A1262C/U2017G), E. coli, with erythromycin): With erythromycin; reduced
- Phenotype (23S rRNA 1262 A to C, E. coli, with erythromycin): With erythromycin; lethal
- Phenotype (23S rRNA 1262 A to G, E. coli, with erythromycin): With erythromycin; lethal
- Phenotype: growth rate (23S rRNA 1262 A to U, double mutant (A1262U/U2017G), E. coli, with erythromycin): With erythromycin; reduced
- Phenotype: growth rate (23S rRNA 1262 A to U, E. coli, with erythromycin): With erythromycin; reduced
- Phenotype: growth rate (23S rRNA 2017 U to A, E. coli): Reduced growth
- Phenotype: growth rate (23S rRNA 2017 U to C, double mutation (U2017C/A1262G), E. coli): Reduced growth
- Phenotype: growth rate (23S rRNA 2017 U to C, E. coli): Reduced growth
- Phenotype: growth rate (23S rRNA 2017 U to G, double mutation (U2017G/A1262C), E. coli): Reduced growth
- Phenotype: growth rate (23S rRNA 2017 U to G, double mutation (U2017G/A1262U), E. coli): Reduced growth

Structure (SMILES): CC[C@H]1OC(=O)[C@H](C)[C@@H](O[C@H]2C[C@@](C)(OC)[C@@H](O)[C@H](C)O2)[C@H](C)[C@@H](O[C@@H]2O[C@H](C)C[C@H](N(C)C)[C@H]2O)[C@](C)(O)C[C@@H](C)C(=O)[C@H](C)[C@@H](O)[C@]1(C)O [eyrthomycin]
- Phenotype: growth rate (23S rRNA 2017 U to G, E. coli): Reduced growth

Structure (SMILES): CCC[C@@H]1C[C@@H](C(=O)N[C@@H]([C@H]2O[C@H](SC)[C@H](O)[C@@H](O)[C@H]2O)[C@@H](C)O)N(C)C1 [lincomycin]
- Phenotype [1]: low level
- Phenotype [2]: low level
